Consider 16 compounds from ChEMBL document CHEMBL3046619, “Peroxidizing Phytotoxicities of 1, 2-Dialkyl-1, 2, 4-triazolidines and 3, 4-Dialkyl-1, 3, 4-thiadiazolidines” (J Pestic Sci, 1997).

The target in this test is T1, Protoporphyrinogen IX oxidase (Zea mays, UniProt Q9FYV8).
T1 sequence (Q9FYV8 whole entry): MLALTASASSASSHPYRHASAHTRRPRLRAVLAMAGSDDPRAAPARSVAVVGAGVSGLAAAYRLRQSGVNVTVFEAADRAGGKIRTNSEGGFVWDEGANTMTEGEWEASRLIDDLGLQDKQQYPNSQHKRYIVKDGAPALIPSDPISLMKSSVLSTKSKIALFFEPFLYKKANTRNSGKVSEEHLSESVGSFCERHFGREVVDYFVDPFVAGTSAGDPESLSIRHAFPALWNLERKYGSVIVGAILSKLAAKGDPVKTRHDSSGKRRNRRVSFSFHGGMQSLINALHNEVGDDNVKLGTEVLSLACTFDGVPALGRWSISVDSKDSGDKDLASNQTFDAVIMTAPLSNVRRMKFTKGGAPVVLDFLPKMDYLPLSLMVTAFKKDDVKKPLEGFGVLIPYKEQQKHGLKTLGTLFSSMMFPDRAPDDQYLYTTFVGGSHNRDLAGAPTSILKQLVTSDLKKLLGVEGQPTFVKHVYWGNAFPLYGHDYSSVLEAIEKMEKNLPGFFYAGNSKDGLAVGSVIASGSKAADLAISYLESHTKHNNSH
Nature of the test: Inhibition of Zea mays (maize) protoporphyrinogen IX oxidase. The note with it: read-out: pI50 (converted).

In the case of `S=c1n(-c2ccc(Br)cc2)c(=S)n2n1CCCC2`, the IC50 is 10 nM.
The result for `O=c1[nH][nH]c(=S)n1-c1ccc(Br)cc1` reads 72400 nM.
`Cn1c(=O)n(-c2ccc(Br)cc2)c(=O)n1C`: the IC50 is 12900 nM.
Consider `Cn1c(=O)n(-c2ccc(Br)cc2)c(=S)n1C`, for which the IC50 was 282 nM.
As for `Cn1c(=S)n(-c2ccc(Br)cc2)c(=S)n1C`, the IC50 was 110 nM.
On to `CCn1c(=O)n(-c2ccc(Br)cc2)c(=O)n1CC`, for which the IC50 is 36300 nM.
With `CCn1c(=O)n(-c2ccc(Br)cc2)c(=S)n1CC`, the IC50 is 832 nM.
Regarding `CCn1c(=S)n(-c2ccc(Br)cc2)c(=S)n1CC`, the IC50 is 1380 nM.
The result for `CCCn1c(=O)n(-c2ccc(Br)cc2)c(=S)n1CCC` reads 24500 nM.
Regarding `Cn1c(=O)s/c(=N\c2ccc(Br)cc2)n1C`, the IC50 is 3720 nM.
For `Cn1c(=S)s/c(=N\c2ccc(Br)cc2)n1C`, the IC50 was 3090 nM.
Take `CCn1c(=O)s/c(=N\c2ccc(Br)cc2)n1CC`: the IC50 was 8710 nM.
For the compound `CCn1c(=S)s/c(=N\c2ccc(Br)cc2)n1CC`, the IC50 was 4270 nM.
`S=c1n(-c2ccc(Br)cc2)c(=S)n2n1CCC2`: the IC50 is 34.7 nM.
On to `S=c1n(-c2ccc(Br)cc2)c(=S)n2n1CCCCC2`, for which the IC50 is 129 nM.
With `O=C1C2=C(CCCC2)C(=O)N1c1ccc(Cl)cc1` [CHLOROPHTHALIUM], the IC50 is 50.1 nM.
